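Protocol summary: plate cells (96-well), add compound at 5 concentrations, incubate 48 h, interpolate endpoints linearly. GI50: concentration for 50% inhibition of growth. TGI marks complete inhibition of growth.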

Among the test systems are CCRF-CEM leukemia; UACC-257 melanoma; HCT-116 colon; SN12C renal; MCF7 breast; HL-60(TB) leukemia; HOP-92 NSCLC; SK-MEL-5 melanoma; ACHN renal; NCI-H460 lung.
Holding throughout (test): NCI-60 cell line screen, 48 h

Take `CC(=O)O[C@H]1[C@@H]2OC(=O)C(CSc3ccccc3)[C@@H]2C[C@H]2O[C@]2(C)CC/C=C(\C)CCC[C@@H]1C` (stereo not given in full): the GI50 with CCRF-CEM leukemia is 2.17 µM; in the assay on UACC-257 melanoma, 5.07 µM; with HCT-116 colon, 1.46 µM; in the assay with SN12C renal, 3.45 µM; in the assay on MCF7 breast it was 2.62 µM; in the assay on HL-60(TB) leukemia, 1.4 µM. Also, the GI50 in the assay with HOP-92 NSCLC was 1.74 µM; in the assay on SK-MEL-5 melanoma, 2.57 µM; in the assay with ACHN renal it was 1.8 µM; in the assay with NCI-H460 lung it was 4.4 µM. Also, the TGI in the assay with CCRF-CEM leukemia is greater than 21.1 µM; with UACC-257 melanoma, 19.2 µM; in the assay with HCT-116 colon it was 2.91 µM; with SN12C renal, 14.8 µM; in the assay with MCF7 breast it was 12 µM; with HL-60(TB) leukemia, 4.69 µM. Besides, the TGI in the assay with HOP-92 NSCLC turned out to be 5.43 µM; in the assay with SK-MEL-5 melanoma, 8.65 µM; in the assay on ACHN renal, 3.82 µM; in the assay on NCI-H460 lung, 19.3 µM.

For `CC1=C(/C=C/C(C)=C/C=C/C(C)=C/C(=O)O)C(C)(C)CCC1`, the TGI in the assay on CCRF-CEM leukemia was 70.8 µM; in the assay on UACC-257 melanoma it was 99.7 µM; in the assay with HCT-116 colon it was 64.2 µM; in the assay with SN12C renal, 72.1 µM; in the assay with MCF7 breast it was greater than 77.9 µM; in the assay on HL-60(TB) leukemia it was 59.3 µM. Moreover, the TGI is greater than 83.4 µM in the assay on HOP-92 NSCLC, 63.3 µM in the assay on SK-MEL-5 melanoma, 75.9 µM in the assay with ACHN renal and 70.5 µM in the assay on NCI-H460 lung.

For `CC1(N)CCN(c2cnc(-c3cccc(Cl)c3Cl)c(N)n2)CC1`, the GI50 was 23.2 µM with CCRF-CEM leukemia; 17 µM in the assay on UACC-257 melanoma; 14.5 µM in the assay with HCT-116 colon; 15.6 µM in the assay on SN12C renal; 17.2 µM in the assay on MCF7 breast; 41.9 µM with HL-60(TB) leukemia. Also, the GI50 with HOP-92 NSCLC was 0.553 µM; in the assay with SK-MEL-5 melanoma, 15.2 µM; in the assay on ACHN renal it was 10.9 µM; in the assay on NCI-H460 lung, 32.7 µM. Further, the TGI in the assay on CCRF-CEM leukemia was greater than 100 µM; with UACC-257 melanoma, 35.2 µM; with HCT-116 colon, 29 µM; in the assay with SN12C renal, greater than 100 µM; with MCF7 breast, 37.2 µM; with HL-60(TB) leukemia, greater than 100 µM. Further, the TGI was 5.44 µM with HOP-92 NSCLC, 28.6 µM with SK-MEL-5 melanoma, greater than 100 µM in the assay with ACHN renal and greater than 100 µM in the assay with NCI-H460 lung.

Turning to `O=[N+]([O-])c1cc(C(F)(F)F)ccc1Sc1ccc(C(F)(F)F)cc1[N+](=O)[O-]`, the GI50 in the assay on CCRF-CEM leukemia is 3.47 µM; with UACC-257 melanoma, 6.65 µM; in the assay with HCT-116 colon, 3.68 µM; in the assay on SN12C renal it was 7.7 µM; with MCF7 breast, 9.39 µM; with HL-60(TB) leukemia it was 3.32 µM. For the same compound, the GI50 in the assay on HOP-92 NSCLC was 7.96 µM; in the assay with SK-MEL-5 melanoma, 16.7 µM; in the assay with ACHN renal, 49.4 µM; in the assay on NCI-H460 lung it was 19 µM. Moreover, the TGI with CCRF-CEM leukemia, in the assay on UACC-257 melanoma, in the assay on HCT-116 colon, with SN12C renal, in the assay on MCF7 breast and in the assay with HL-60(TB) leukemia was greater than 100 µM each time. Also, the TGI in the assay with HOP-92 NSCLC, with SK-MEL-5 melanoma, in the assay with ACHN renal and with NCI-H460 lung was greater than 100 µM each time.

In the case of `CC(CN(C)C)Oc1ccccc1NC1=C(Cl)C(=O)C(Nc2ccccc2OC(C)CN(C)C)=C(Cl)C1=O` (stereo not given), the GI50 is 0.265 µM with CCRF-CEM leukemia; 1.16 µM in the assay on UACC-257 melanoma; 0.17 µM in the assay with HCT-116 colon; 0.347 µM in the assay with SN12C renal; 0.169 µM in the assay on MCF7 breast; 0.272 µM in the assay on HL-60(TB) leukemia. The GI50 in the assay on HOP-92 NSCLC is 0.268 µM; in the assay with SK-MEL-5 melanoma, 1.56 µM; in the assay with ACHN renal it was 0.174 µM; with NCI-H460 lung, 1.3 µM. Also, the TGI worked out at 0.882 µM with CCRF-CEM leukemia; 2.53 µM with UACC-257 melanoma; 0.344 µM in the assay on HCT-116 colon; 0.853 µM in the assay with SN12C renal; 0.41 µM in the assay with MCF7 breast; 0.902 µM in the assay on HL-60(TB) leukemia. In addition, the TGI in the assay on HOP-92 NSCLC is 0.807 µM; in the assay on SK-MEL-5 melanoma it was 2.94 µM; with ACHN renal, 0.312 µM; with NCI-H460 lung it was 2.9 µM.

As for `Cc1cn2c(/C=N/N=C(N)N)c(-c3ccccn3)nc2s1`, the GI50 is 12.3 µM in the assay on CCRF-CEM leukemia; 7.78 µM with UACC-257 melanoma; 6.29 µM in the assay on HCT-116 colon; 14.7 µM in the assay on SN12C renal; 10.2 µM with MCF7 breast; 4.56 µM in the assay with HL-60(TB) leukemia. The GI50 in the assay on HOP-92 NSCLC is 7.35 µM; in the assay with SK-MEL-5 melanoma, 7.95 µM; in the assay with ACHN renal it was 21.8 µM; with NCI-H460 lung it was 14.9 µM. Moreover, the TGI was greater than 100 µM in the assay with CCRF-CEM leukemia; 17.9 µM in the assay on UACC-257 melanoma; 25.8 µM in the assay on HCT-116 colon; 29.5 µM in the assay on SN12C renal; greater than 68.2 µM in the assay with MCF7 breast; greater than 100 µM in the assay with HL-60(TB) leukemia. For the same compound, the TGI was 16.9 µM in the assay with HOP-92 NSCLC, 25.8 µM with SK-MEL-5 melanoma, 51.7 µM in the assay on ACHN renal and greater than 75.6 µM with NCI-H460 lung.

As for `O=C(N/N=C/c1ccc(O)cc1O)c1cccc(Nc2ccnc(C(F)(F)F)c2)c1`, the GI50 with CCRF-CEM leukemia was 0.257 µM; in the assay on UACC-257 melanoma, 3.06 µM; in the assay with HCT-116 colon it was 0.535 µM; with SN12C renal, 2.01 µM; in the assay on MCF7 breast it was 2.2 µM; in the assay on HL-60(TB) leukemia, 0.472 µM. The GI50 in the assay on HOP-92 NSCLC is 3.44 µM; in the assay on SK-MEL-5 melanoma it was 0.626 µM; with ACHN renal, 1.25 µM; in the assay with NCI-H460 lung, 3.06 µM. Besides, the TGI was determined as 2.14 µM in the assay with CCRF-CEM leukemia; 12.3 µM with UACC-257 melanoma; 20.5 µM in the assay with HCT-116 colon; 26.1 µM with SN12C renal; 15.5 µM with MCF7 breast; 2.98 µM in the assay with HL-60(TB) leukemia. The TGI was greater than 48.2 µM in the assay with HOP-92 NSCLC, 11.1 µM in the assay with SK-MEL-5 melanoma, 29.6 µM with ACHN renal and 11.3 µM in the assay with NCI-H460 lung.

As for `Cc1cc2c(C(N)=O)c(N)n(-c3c(C)ccc(O)c3C)c2nc1C`, the GI50 in the assay on CCRF-CEM leukemia was 2.65 µM; with UACC-257 melanoma, 3.13 µM; with HCT-116 colon it was 2.52 µM; with SN12C renal, 2.48 µM; in the assay on MCF7 breast, 3.41 µM; with HL-60(TB) leukemia, 4.4 µM. Also, the GI50 in the assay with HOP-92 NSCLC is 1 µM; with SK-MEL-5 melanoma, 4.89 µM; in the assay on ACHN renal, 1.84 µM; in the assay with NCI-H460 lung it was 4.77 µM. Besides, the TGI in the assay on CCRF-CEM leukemia is greater than 100 µM; in the assay with UACC-257 melanoma, 51.6 µM; with HCT-116 colon, 15.2 µM; with SN12C renal it was 34.5 µM; in the assay on MCF7 breast, greater than 100 µM; with HL-60(TB) leukemia it was greater than 100 µM. Moreover, the TGI in the assay on HOP-92 NSCLC was 14.1 µM; with SK-MEL-5 melanoma, 26.3 µM; in the assay with ACHN renal it was 10.5 µM; with NCI-H460 lung, 31.2 µM.

Consider `N#Cc1cc(S(=O)(=O)Nc2nnc(-c3ccccc3)c(-c3ccccc3)n2)c(SCc2ccccc2)cc1Cl`, for which the GI50 in the assay with CCRF-CEM leukemia is 7.06 µM; in the assay on UACC-257 melanoma it was 24.2 µM; with HCT-116 colon, 18.5 µM; in the assay on SN12C renal, 20.3 µM; in the assay with MCF7 breast it was 31 µM; in the assay with HL-60(TB) leukemia, 19.9 µM. Further, the GI50 in the assay with HOP-92 NSCLC was 18.4 µM; in the assay with SK-MEL-5 melanoma, 23 µM; with ACHN renal it was 21.5 µM; with NCI-H460 lung, 38.7 µM. Moreover, the TGI with CCRF-CEM leukemia is greater than 100 µM; in the assay with UACC-257 melanoma, 46.4 µM; in the assay with HCT-116 colon it was 36.2 µM; in the assay on SN12C renal it was 47 µM; in the assay with MCF7 breast, greater than 100 µM; with HL-60(TB) leukemia, 44.8 µM. Also, the TGI was 58.7 µM with HOP-92 NSCLC, 51.4 µM in the assay with SK-MEL-5 melanoma, 42.6 µM in the assay on ACHN renal and greater than 100 µM with NCI-H460 lung.

For the compound `COc1cc(C2=N/C(=C/c3cccs3)C(=O)O2)cc(OC)c1OC`, the TGI in the assay with CCRF-CEM leukemia, with UACC-257 melanoma, in the assay on HCT-116 colon, in the assay with SN12C renal, with MCF7 breast and with HL-60(TB) leukemia was greater than 100 µM each time. For the same compound, the TGI in the assay with HOP-92 NSCLC, in the assay on SK-MEL-5 melanoma, in the assay with ACHN renal and with NCI-H460 lung was greater than 100 µM in each case.

Turning to `COc1cc(-c2csc(NC(=O)Nc3ccc(C(F)(F)F)cc3)n2)cc(OC)c1OC`, the GI50 with CCRF-CEM leukemia is 3.49 µM; in the assay with UACC-257 melanoma it was 2.47 µM; in the assay on HCT-116 colon it was 2.32 µM; with SN12C renal, 2.62 µM; with MCF7 breast, 2.21 µM; in the assay with HL-60(TB) leukemia, 3.75 µM. The GI50 with HOP-92 NSCLC was 1.61 µM; in the assay on SK-MEL-5 melanoma, 1.62 µM; in the assay on ACHN renal it was 2.11 µM; in the assay on NCI-H460 lung it was 2.52 µM. Further, the TGI in the assay on CCRF-CEM leukemia worked out at 18.9 µM; in the assay with UACC-257 melanoma it was 5.91 µM; in the assay on HCT-116 colon, 8.16 µM; in the assay on SN12C renal, 8.89 µM; in the assay on MCF7 breast, 7.66 µM; in the assay on HL-60(TB) leukemia, 8.05 µM. Also, the TGI with HOP-92 NSCLC is 4.73 µM; with SK-MEL-5 melanoma, 3 µM; with ACHN renal, 6.13 µM; in the assay with NCI-H460 lung, 7.01 µM.

For the compound `CN1CCN(c2ccc(NC(=O)c3cncnc3Nc3ccc(OCc4ccccn4)c(Cl)c3)cc2)CC1`, the GI50 in the assay on CCRF-CEM leukemia was 1.86 µM; with UACC-257 melanoma, 0.718 µM; in the assay on HCT-116 colon it was 0.788 µM; in the assay with SN12C renal it was 3.93 µM; in the assay with MCF7 breast, 2.8 µM; with HL-60(TB) leukemia it was 4.11 µM. The GI50 was 3.11 µM in the assay on HOP-92 NSCLC, 1.77 µM with SK-MEL-5 melanoma, 3.77 µM in the assay on ACHN renal and 2.27 µM in the assay with NCI-H460 lung. Also, the TGI is 10.5 µM with CCRF-CEM leukemia; 1.61 µM in the assay with UACC-257 melanoma; 1.91 µM in the assay with HCT-116 colon; 8.72 µM with SN12C renal; 8.53 µM in the assay on MCF7 breast; 9.28 µM in the assay on HL-60(TB) leukemia. For the same compound, the TGI with HOP-92 NSCLC was determined as 9.28 µM; in the assay with SK-MEL-5 melanoma, 6.01 µM; in the assay on ACHN renal, 7.87 µM; with NCI-H460 lung it was 7.57 µM.

For the origin of these results see PubChem BioAssay (NCI).
